For 22 molecules, EC50 results are on record in US12421242B2, “Substituted tetrahydropyrrolo-pyridinone compounds and their use in treating medical conditions” (Karuna Therapeutics, Inc., priority 2022, dated 2025).

The target of one assay is T1, hM4 receptors (Homo sapiens, UniProt P08173).
T1 construct: expressed in transfected cells; host or cells: CHO cells
T1 sequence (P08173 1-479): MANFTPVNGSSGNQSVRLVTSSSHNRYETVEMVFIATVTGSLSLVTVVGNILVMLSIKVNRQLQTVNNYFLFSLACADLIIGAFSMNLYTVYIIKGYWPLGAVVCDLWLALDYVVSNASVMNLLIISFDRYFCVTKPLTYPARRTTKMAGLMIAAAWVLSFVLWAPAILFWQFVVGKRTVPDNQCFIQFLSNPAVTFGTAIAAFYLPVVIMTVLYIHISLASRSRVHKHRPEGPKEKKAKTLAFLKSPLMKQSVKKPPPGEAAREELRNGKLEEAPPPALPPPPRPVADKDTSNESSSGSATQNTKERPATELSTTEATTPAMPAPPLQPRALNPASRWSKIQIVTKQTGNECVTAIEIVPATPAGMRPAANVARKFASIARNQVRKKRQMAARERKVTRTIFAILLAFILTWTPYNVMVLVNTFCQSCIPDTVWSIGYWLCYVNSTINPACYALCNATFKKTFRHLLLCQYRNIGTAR
Kind of assay: Human M4 PAM pERK assay. Type of assay: cell-based. Conditions: PAM mode. On the procedure: (§1) Chinese hamster ovary (CHO) cells expressing either hM4 or rM4 receptors were frozen in assay ready vials (5×10^6 cells/vial) after bulking-up in culture. The day before an assay, vial(s) were thawed and cells seeded in 384 well white proxiplates at 1000/well for hM4 cells and at 2000/well for rM4 cells, in 10 μL of growth media (Hams/F12 with glutamax and 10% FCS) and incubated overnight at 37° C./5% CO2.
(§2) On the following morning, the growth media was removed by ‘flicking out’ over a bin, patting the inverted plate onto tissue, and then replacing with 10 μL of wash media (Hams/F12 with glutamax and 8 mM HEPES, NB: serum free). Then, the wash media was removed in the same way and replaced with 8 μL/well of the serum free media. Plates were then re-incubated for a further 4 hours at 37° C./5% CO2.
(§3) Compounds for testing were solubilized to 10 mM in DMSO and compound addition plates, consisting of ten-point concentration response curves (CRC) in duplicate points (10 μM top concentration, […]), were prepared by acoustic dispensing and the compound management group.
(§4) After the 4-hour incubation in serum free media, a 4 μL aliquot of the 3× compound solution containing an EC20 of acetylcholine (10 nM final concentration) was added to the cell plate using a 384 well plate to plate transfer. Then, the plate lid was replaced, and the cells incubated for 5 mins at 37° C./5% CO2. Following this final incubation, all cellular processes were stopped by the addition of 4 μL/well of lysis and blocking buffer and plates were incubated for 30 minutes at RT on an orbital shaker (gentle setting). Then, a final addition of 4 μL/well of antibody detection mix, containing both the Europium-Cryptate (donor) and d2 (acceptor) tagged detection components, was added followed by a further 2-hour incubation at RT, and then the plate was read using a TR-FRET (time resolved fluorescence resonance energy transfer) based protocol.

Another assay concerns the target T2, rM4 receptors (Rattus norvegicus, UniProt P08485).
T2 construct: expressed in transfected cells; host or cells: CHO cells
T2 sequence (P08485 1-478): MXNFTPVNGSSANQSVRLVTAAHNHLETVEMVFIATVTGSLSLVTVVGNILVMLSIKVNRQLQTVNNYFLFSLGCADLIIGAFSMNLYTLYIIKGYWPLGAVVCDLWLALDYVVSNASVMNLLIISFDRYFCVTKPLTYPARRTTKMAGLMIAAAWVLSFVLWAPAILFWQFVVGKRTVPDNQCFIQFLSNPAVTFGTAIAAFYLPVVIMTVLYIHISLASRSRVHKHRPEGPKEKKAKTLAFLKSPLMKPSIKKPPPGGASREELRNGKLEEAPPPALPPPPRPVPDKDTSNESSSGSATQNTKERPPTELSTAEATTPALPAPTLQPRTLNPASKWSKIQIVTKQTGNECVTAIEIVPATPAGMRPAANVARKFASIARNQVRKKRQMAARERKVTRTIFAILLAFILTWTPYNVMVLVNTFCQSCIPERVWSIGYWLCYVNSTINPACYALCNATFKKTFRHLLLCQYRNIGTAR
Put plainly: Rat M4 PAM pERK assay. It counts as cell-based. Conditions: PAM mode. As for the experimental part:
as §1, §2, §3, §4

The target in a further assay is T3, human M4 receptor (Homo sapiens, UniProt P08173).
T3 construct: expressed in transfected cells
T3 sequence (P08173 1-479): T1 sequence (P08173 1-479)
Kind of assay: M4 GTPγS PAM assay. It counts as biochemical. The following applies: CHO-K1 membranes expressing human M4, with EC20 acetylcholine (40 nM). On the procedure:
The M4 GTPγS PAM method was used. Membranes were prepared for GTPgS binding assays from CHO-K1 cells stably expressing human M4 receptor. Briefly, cells were grown in 5-layer cell culture flasks. Cells were washed with 50 mL of PBS and then dissociated with 0.05% trypsin. Dissociated cells were then collected by centrifugation at 650×g for 8 minutes at 4° C. Pellets were washed again in PBS by centrifugation and resuspended in 30 mL of 20 mM HEPES, 10 mM EDTA, pH 7.4. After sitting on ice for 30 min, membranes were collected by centrifugation at 50000×g for 15′ at 4° C., resuspended in 30 mL of 20 mM HEPES, 0.1 mM EDTA, pH 7.4 and collected again by centrifugation. Pellets were then washed twice by centrifugation in 30 mL of 20 mM HEPES, pH 7.4, and stored at −80° C. until the day of the assay. On the day of the assay, pellets were thawed on ice and resuspended in 1 mL of 20 mM HEPES, pH 7.4, 10 mM MgCl2, 100 mM NaCl using dounce homogenization. Membrane protein concentration is determined by BCA protein assay (Promega, Madison, WI) according to Promega guidelines.
On the day of the assay, serial dilutions of test PAM compounds were brought up in assay buffer (20 mM HEPES, 10 mM MgCl2, 100 mM NaCl) at 4× final assay concentration. […] of membrane homogenates (containing […] of membrane protein) were prepared in assay buffer supplemented with GDP at 4× final assay concentration (final assay concentration of GDP is 5 uM for M2 and 0.1 uM for M4) and dispensed into 96 well polypropylene, U-bottom Greiner plates. […] of vehicle or test PAM compound at 4× of final assay concentration diluted in the assay buffer were added to membrane and plates are incubated for 10-15 minutes at room temperature with gentle shaking. Then, […] of EC20 acetylcholine in assay buffer at 4× final assay concentration was added to assay plates (EC20 final assay concentrations was 40 nM for human M4).
Plates were then incubated, with shaking, for an additional 10-15 minutes. 25 mL of 0.4 nM ^35S-GTP (Perkin Elmer, Waltham, MA) in assay buffer was added to assay mixtures. The binding reaction is left on the shaker for 1 hour at room temperature. Membranes in assay reactions were then transferred to GF/C filter plates (Unifilter, Perkin Elmer) and washed three times using a FilterMate Harvester (Perkin Elmer) with cold assay buffer containing no GDP. Filter plates were then dried at 40° C. overnight followed by the addition of […] of Beta Plate Scintillation liquid. Plates are top and bottom sealed before being read on TopCount scintillation counter (Perkin Elmer, Waltham, MA).

Where only a bound is given, the exact number is not on record here.

Consider `COc1cc(=O)n(C)c2c1C(C)N(C(=O)c1cnn(C(F)(F)F)c1)C2` (single isomer, unassigned) [Compound I-81], for which the EC50 on hM4 receptors, at rM4 receptors and on human M4 receptor was over 2000 nM in each case.

Regarding `COc1c2c(n(C)c(=O)c1C)CN(C(=O)c1cnn(C(F)(F)F)c1)C2C` (single isomer, unassigned) [Compound I-83], the EC50 was under 100 nM on hM4 receptors, 500 to 2000 nM at rM4 receptors and 100 to 500 nM at human M4 receptor.

On to `COc1c2c(n(C)c(=O)c1C)CN(C(=O)c1cnn(C(F)(F)F)c1)C2C` (single isomer, unassigned) [Compound I-84], for which the half-maximal effective concentration (EC50) was 500 to 2000 nM at hM4 receptors, over 2000 nM on rM4 receptors and over 2000 nM on human M4 receptor.

As for `Cc1cc(=O)n(C)c2c1C(C)N(C(=O)c1cnn(C(F)(F)F)c1)C2` (single isomer, unassigned) [Compound I-92, 1,4,5-Trimethyl-6-(1-(trifluoromethyl)-1H-pyrazole-4-carbonyl)-1,5,6,7-tetrahydro-2H-pyrrolo[3,4-b]pyridin-2-one], the EC50 on hM4 receptors, at rM4 receptors and at human M4 receptor was over 2000 nM throughout.

With `Cc1cc(=O)n(C)c2c1C(C)N(C(=O)c1cnc(C(F)(F)F)s1)C2` (single isomer, unassigned) [Compound I-94], the EC50 on hM4 receptors, on rM4 receptors and on human M4 receptor was over 2000 nM throughout.

In the case of `Cc1cc(=O)n(C)c2c1C(C)N(C(=O)c1cnc(C(F)(F)F)s1)C2` (single isomer, unassigned) [Compound I-95], the EC50 was 100 to 500 nM on hM4 receptors, over 2000 nM at rM4 receptors and 500 to 2000 nM at human M4 receptor.

Consider `Cc1cc(=O)n(C)c2c1C(C)N(C(=O)c1cnc(C3CC3)s1)C2` (single isomer, unassigned) [Compound I-96], for which the EC50 on hM4 receptors, at rM4 receptors and at human M4 receptor was over 2000 nM throughout.

In the case of `Cc1cc(=O)n(C)c2c1C(C)N(C(=O)c1cnc(C3CC3)s1)C2` (single isomer, unassigned) [Compound I-97], the results for the EC50 at hM4 receptors, on rM4 receptors and on human M4 receptor were 100 to 500 nM, over 2000 nM and over 2000 nM, respectively.

As for `Cc1cc(=O)n(C)c2c1C(C)N(C(=O)c1ccc3nc(C4CC4)sc3c1)C2` (single isomer, unassigned) [Compound I-98], the EC50 at hM4 receptors, on rM4 receptors and on human M4 receptor was over 2000 nM throughout.

For the molecule `Cc1cc(=O)n(C)c2c1C(C)N(C(=O)c1ccc3nc(C4CC4)sc3c1)C2` (single isomer, unassigned) [Compound I-99], the results for the EC50 at hM4 receptors, at rM4 receptors and on human M4 receptor were 100 to 500 nM, 500 to 2000 nM and 500 to 2000 nM, respectively.

Take `Cc1cc(=O)n(C)c2c1C(C)N(C(=O)c1ccc3nc(C(F)(F)F)sc3c1)C2` (single isomer, unassigned) [Compound I-100]: the EC50 on hM4 receptors, on rM4 receptors and on human M4 receptor was over 2000 nM throughout.

As to `Cc1c2c(n(C)c(=O)c1Cl)C(C)N(C(=O)c1cnn(C(F)(F)F)c1)C2` (single isomer, unassigned) [Compound I-108, 3-Chloro-1,4,7-trimethyl-6-(1-(trifluoromethyl)-1H-pyrazole-4-carbonyl)-1,5,6,7-tetrahydro-2H-pyrrolo[3,4-b]pyridin-2-one], the concentration giving a half-maximal response (EC50) at hM4 receptors was 500 to 2000 nM; on rM4 receptors, over 2000 nM; at human M4 receptor it was over 2000 nM.

Consider `Cc1c2c(n(C)c(=O)c1Cl)CN(C(=O)c1ccn(C)n1)C2` [Compound I-3], for which the values for the EC50 at hM4 receptors, on rM4 receptors and at human M4 receptor were 500 to 2000 nM, over 2000 nM and over 2000 nM, respectively.

For `Cc1c2c(n(C)c(=O)c1Cl)CN(C(=O)c1cc(C3CC3)on1)C2` [Compound I-6], the EC50 on hM4 receptors was 100 to 500 nM; at rM4 receptors it was over 2000 nM; at human M4 receptor, over 2000 nM.

For `Cc1c2c(n(C)c(=O)c1Cl)CN(C(=O)c1cc(C(F)(F)F)on1)C2` [Compound I-8], the figures for the EC50 at hM4 receptors, on rM4 receptors and at human M4 receptor were under 100 nM, over 2000 nM and over 2000 nM, respectively.

As to `Cc1ncc(C(=O)N2Cc3c(C)c(Cl)c(=O)n(C)c3C2)s1` [Compound I-9], the EC50 is under 100 nM on hM4 receptors, 500 to 2000 nM on rM4 receptors and 500 to 2000 nM on human M4 receptor.

`Cc1nc(C(=O)N2Cc3c(C)c(Cl)c(=O)n(C)c3C2)co1` [Compound I-12]: the values for the 50% effective concentration (EC50) at hM4 receptors, on rM4 receptors and on human M4 receptor were 100 to 500 nM, over 2000 nM and over 2000 nM, respectively.

`Cc1c2c(n(C)c(=O)c1Cl)CN(C(=O)c1cn(C(C)C)cn1)C2` [Compound I-14]: the EC50 at hM4 receptors was 500 to 2000 nM; at rM4 receptors it was over 2000 nM; on human M4 receptor it was over 2000 nM.

Consider `Cc1c2c(n(C)c(=O)c1Cl)CN(C(=O)c1cnn(C(F)F)c1)C2` [Compound I-17], for which the EC50 was under 100 nM at hM4 receptors, 500 to 2000 nM at rM4 receptors and over 2000 nM on human M4 receptor.

As for `Cc1c2c(n(C)c(=O)c1Cl)CN(C(=O)c1cnc(C)n1C)C2` [Compound I-18], the EC50 is 500 to 2000 nM at hM4 receptors, over 2000 nM at rM4 receptors and over 2000 nM on human M4 receptor.

As for `Cc1c2c(n(C)c(=O)c1Cl)CN(C(=O)c1cn(CC(C)C)cn1)C2` [Compound I-19], the half-maximal effective concentration (EC50) was 500 to 2000 nM at hM4 receptors, over 2000 nM on rM4 receptors and over 2000 nM on human M4 receptor.

Regarding `Cc1c2c(n(C)c(=O)c1Cl)CN(C(=O)c1cnc(C3CC3)s1)C2` [Compound I-21], the EC50 at hM4 receptors was under 100 nM; on rM4 receptors, 500 to 2000 nM; at human M4 receptor, 100 to 500 nM.

As usually defined, the EC50 is the midpoint of the concentration-response curve. Low readings indicate a more potent agent, high ones a less potent agent.
